The test system of assay [1] is MARK3. The following applies: cited from earlier work.
In assay [2] the test system is PRKD2. The following applies: cited from earlier work.
Assay [3] has as its target CAMK2G. The following applies: cited from earlier work.
Assay [4] deals with SIK2. The following applies: cited from earlier work.
In assay [5] the test system is STK10. The following applies: cited from earlier work.
Assay [6] deals with AURKA. As to conditions: cited from earlier work.
For assay [7], the target named is RET. The following applies: cited from earlier work.
The test system of assay [8] is TNK1. As to conditions: cited from earlier work.
In assay [9] the test system is AAK1. As to conditions: cited from earlier work.
For assay [10], the system named is FLT3. The following applies: cited from earlier work.
The test system of assay [11] is MAPK10. The following applies: cited from earlier work.
The test system of assay [12] is PaTu-8988-T. The assay is described as follows: cells. Details: ATPlite luminescence viability of PDAC cell lines, 11-dose single-agent curves, 4-parameter fit. The following applies: Homo sapiens, PaTu 8988t, 72 h, read-out: EC50 [nM]. Summed up:
(§1)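 cells (1000 to 5000 per well) seeded 24 h before drug addition in a combination screen at 0.2% final DMSO. Controls were drug-free wells (negative) and 5 µM staurosporine (positive).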

The subject of assay [13] is BxPC-3. The assay is described as follows: cells. Details: ATPlite luminescence viability of PDAC cell lines, 11-dose single-agent curves, 4-parameter fit. The following applies: Homo sapiens, BXPC-3, 72 h, read-out: EC50 [nM]. In short, it runs like this: as §1
The mark [14] stands for this setting: MARK3, 5 cell line mix lysate, Kinobeads ε, ref Reinecke et al. (2023).
The mark [15] stands for this setting: PRKD2, 5 cell line mix lysate, Kinobeads ε, ref Reinecke et al. (2023).
[16] abbreviates: 5 cell line mix lysate, Kinobeads ε, ref Reinecke et al. (2023), read-out: KDapp.
Setting [17] is: 5 cell line mix lysate, Kinobeads ε, ref Reinecke et al. (2023).
[18] abbreviates: SIK2, 5 cell line mix lysate, Kinobeads ε, ref Reinecke et al. (2023).
[19] abbreviates: STK10, 5 cell line mix lysate, Kinobeads ε, ref Reinecke et al. (2023).
Where [20] appears, read: TNK1, 5 cell line mix lysate, Kinobeads ε, ref Reinecke et al. (2023).
Where [21] appears, read: AAK1, 5 cell line mix lysate, Kinobeads ε, ref Reinecke et al. (2023).
The mark [22] stands for this setting: FLT3, 5 cell line mix lysate, Kinobeads ε, ref Reinecke et al. (2023).
[23] abbreviates: MAPK10, 5 cell line mix lysate, Kinobeads ε, ref Reinecke et al. (2023).
The mark [24] stands for this setting: 4 cell line mix lysate, Kinobeads y, ref Klaeger et al. (2017).

Drawing on paper PMC11876601 (Molecular Systems Biology, 2025), this text covers EC50, pKDapp and Kd for 2 compounds.

Read-outs that look alike come from different tables or passages of the source.

In the case of `COc1cc(N2CCC(N3CCN(C)CC3)CC2)ccc1Nc1ncc(Cl)c(Nc2ccccc2P(C)(C)=O)n1` [Brigatinib], the EC50 – broadly, the concentration needed to bring the measured effect to its halfway point – in assay [1] (setting [14]) is 250 nM; in [2] (setting [15]), 361 nM; in [3] (setting [17]) it was 429 nM; in assay [4] (setting [18]), 46.5 nM; in assay [5] (setting [19]) it was 310 nM; in assay [6] (setting [17]), 634 nM. For the same compound, the EC50 is 283 nM in assay [7] (setting [17]); 1.59 nM in assay [8] (setting [20]); 328 nM in assay [9] (setting [21]); 142 nM in assay [10] (setting [22]); 789 nM in assay [11] (setting [23]). The pKDapp in [1] (setting [14]) was 6.71; in assay [2] (setting [15]) it was 6.62; in assay [3] (setting [17]) it was 7.03; in assay [4] (setting [18]), 7.62; in assay [5] (setting [19]), 6.55; in [6] (setting [17]) it was 6.65. Moreover, the pKDapp is listed as 6.90 in [7] (setting [17]); 9.16 in assay [8] (setting [20]); 6.66 in assay [9] (setting [21]); 7.12 in assay [10] (setting [22]); 6.18 in assay [11] (setting [23]). In addition, the Kd in [1] (MARK3, 5 cell line mix lysate, Kinobeads ε, ref Reinecke et al. (2023), read-out: KDapp) is 193 nM; in [2] (PRKD2, 5 cell line mix lysate, Kinobeads ε, ref Reinecke et al. (2023), read-out: KDapp), 238 nM; in [3] (setting [16]) it was 93.2 nM; in assay [4] (SIK2, 5 cell line mix lysate, Kinobeads ε, ref Reinecke et al. (2023), read-out: KDapp), 24.1 nM; in [5] (STK10, 5 cell line mix lysate, Kinobeads ε, ref Reinecke et al. (2023), read-out: KDapp), 283 nM; in assay [6] (setting [16]), 224 nM. Besides, the Kd was 125 nM in assay [7] (setting [16]); 0.69 nM in assay [8] (TNK1, 5 cell line mix lysate, Kinobeads ε, ref Reinecke et al. (2023), read-out: KDapp); 220 nM in assay [9] (AAK1, 5 cell line mix lysate, Kinobeads ε, ref Reinecke et al. (2023), read-out: KDapp); 76.3 nM in assay [10] (FLT3, 5 cell line mix lysate, Kinobeads ε, ref Reinecke et al. (2023), read-out: KDapp); 663 nM in [11] (MAPK10, 5 cell line mix lysate, Kinobeads ε, ref Reinecke et al. (2023), read-out: KDapp).
Take `C[C@]12O[C@H](C[C@]1(O)CO)n1c3ccccc3c3c4c(c5c6ccccc6n2c5c31)CNC4=O` [Lestaurtinib]: the 50% effective concentration (EC50) was […] in assay [1] (MARK3, 4 cell line mix lysate, Kinobeads y, ref Klaeger et al. (2017)); […] in [12]; 432 nM in assay [13]; […] in assay [2] (PRKD2, 4 cell line mix lysate, Kinobeads y, ref Klaeger et al. (2017)); […] in [3] (setting [24]); […] in assay [4] (SIK2, 4 cell line mix lysate, Kinobeads y, ref Klaeger et al. (2017)). Moreover, the concentration for a half-maximal effect (EC50) in [5] (STK10, 4 cell line mix lysate, Kinobeads y, ref Klaeger et al. (2017)) is […]; in assay [6] (setting [24]) it was […]; in assay [7] (setting [24]), […]; in assay [8] (TNK1, 4 cell line mix lysate, Kinobeads y, ref Klaeger et al. (2017)) it was […]; in assay [9] (AAK1, 4 cell line mix lysate, Kinobeads y, ref Klaeger et al. (2017)), […]; in assay [10] (FLT3, 4 cell line mix lysate, Kinobeads y, ref Klaeger et al. (2017)), […]. Besides, the EC50 in [11] (MAPK10, 4 cell line mix lysate, Kinobeads y, ref Klaeger et al. (2017)) was 33.2 nM.
